Experimental data: patent US8759400B2, “Histone deacetylase inhibitors for enhancing activity of antifungal agents” (MethylGene Inc., priority 2005, dated 2014)
Values after ≈ are worked out from the molar mass of the structure shown. Read-outs that look alike come from different tables or passages of the source.

Assays:
HDAC [1] = assay: HDAC inhibitory activity in fungal protoplasts (Fluor-de-Lys); assay type: cell-based, Candida glabrata; details: C. glabrata protoplasts; for HDAC inhibition, per cent in parentheses beside IC50 >20: concentration not given
Method: (§1) Protoplasts of C. albicans and C. glabrata are prepared by the […] method of Franzusoff et al.

C. albicans (ATCC 90028) = assay: MIC80 and checkerboard synergy with antifungal agents; assay type: cell-based, Candida albicans; details: C. albicans (ATCC 90028); for MIC / MIC80: compound alone
HDAC [2] = assay: HDAC inhibitory activity in fungal protoplasts (Fluor-de-Lys); assay type: cell-based, Candida albicans; details: C. albicans protoplasts; for HDAC inhibition, per cent in parentheses beside IC50 >20: concentration not given
Method: as §1

A. fumigatus ATCC 1022 = assay: MIC80 and checkerboard synergy, broth microdilution (NCCLS M38-A); assay type: cell-based, Aspergillus fumigatus; details: for conc. for 4-fold synergy: 48 hours
C. glabrata (ATCC 90030) [3] = assay: MIC80 and checkerboard synergy with antifungal agents; assay type: cell-based, Candida glabrata; details: C. glabrata (ATCC 90030); for MIC / MIC80: compound alone
HMEC [4] = assay: Mammalian cytotoxicity, MTT reduction
ERG11 expression = ERG11 expression with fluconazole (FIG. 3); assay type: cell-based; details: compound 6 and fluconazole, C. albicans
HMEC [5] = details: human
HDAC [6] = assay: HDAC inhibitory activity in fungal protoplasts (Boc-Lys(Ac)-AMC); assay type: cell-based, Aspergillus fumigatus; details: A. fumigatus protoplasts
C. dubliniensis = assay: Clinical isolates, CLSI M27-A2 broth microdilution and checkerboard; assay type: cell-based; details: Candida dubliniensis
C. glabrata (ATCC 90030) [7] = assay type: cell-based; details: agar plates containing 4×MIC of the relevant azole alone
C. glabrata = assay: Post-antifungal effect (PAFE); assay type: cell-based; details: itraconazole alone at 0.25 MIC
Method: The post-antifungal effect (PAFE) is the time needed to achieve one log10 of cell growth after drug removal. One-two colonies are resuspended in 5 ml YPD. […] Cells are incubated at 30° C. overnight. In the morning, the optical density at 600 nm is read. Cells at A600 the closest but not surpassing 0.3 (early log-phase cells) are picked for further treatments as follows: […] Counts of CFU/ml are performed at time zero, before and after diluting the cells and at predetermined time points in order to determine the PAFE and the cidal potential of each drug combination (FIGS. 5-10).

[8] = system: C. glabrata parent strain (ATCC 90030) and C. glabrata mutants; assay: microbe, parasite or virus in culture; assay type: cell-based; details: for MIC80: azole alone
A. flavus = assay: Clinical isolates, CLSI M38-A broth microdilution and checkerboard; assay type: cell-based; details: itraconazole alone, 48 hour endpoint, listed as ITR
[9] = Candida albicans, ATCC90028, read-out: MIC80
[10] = with ketoconazole, A. fumigatus ATCC 1022
[11] = Nakaseomyces glabratus, ATCC90030, read-out: MIC80
[12] = Aspergillus fumigatus, ATCC1022, compound alone, A. fumigatus ATCC 1022, read-out: MIC80

Molecule | HDAC inhibition IC50 (HDAC [1]) [µg/mL] | MIC (C. albicans (ATCC 90028); [9]) [µg/mL] | HDAC inhibition IC50 (HDAC [6]) [µg/mL] | HDAC inhibition IC50 (HDAC [2]) [µg/mL] | conc. for 4-fold synergy (A. fumigatus ATCC 1022; [10]) [µg/mL] | MTT HMEC (HMEC [4]) [µM] | also measured
O=C(NO)c1cccc(CCCc2ccccc2)c1 [Cpd 1] | > 20 | > 16 | – | 9.1 | – | – | HDAC inhibition, per cent in parentheses beside IC50 >20 (HDAC [1]): 38%
Nc1ccccc1NC(=O)c1ccc(CNC(=O)OCc2cccnc2)cc1 [MS275, reference compound] | >20 | – | >40 | >20 | >128 | – | MIC80 (A. fumigatus ATCC 1022; [12]): > 128 µg/mL; MTT HMEC (HMEC [5]): 22 µM; MIC80 (C. albicans (ATCC 90028); [9]): > 128 µg/mL; MIC80 (C. glabrata (ATCC 90030) [3]; [11]): > 64 µg/mL
O=C(CCCCCCC(=O)Nc1ccccc1)NO [SAHA, suberoylanilide hydroxamic acid, reference compound] | – | – | – | – | – | 18 | MIC80 (C. albicans (ATCC 90028); [9]): > 128 µg/mL; MIC80 (C. glabrata (ATCC 90030) [3]; [11]): > 64 µg/mL
CC(/C=C/C(=O)NO)=C\[C@@H](C)C(=O)c1ccc(N(C)C)cc1 [TSA, trichostatin A, reference compound] | ~0.06 | – | 0.01 | 0.07 | 4 | 1 | MIC80 (A. fumigatus ATCC 1022; [12]): 64 to 128 µg/mL; MIC80 (C. albicans (ATCC 90028); [9]): > 128 µg/mL; MIC80 (C. glabrata (ATCC 90030) [3]; [11]): 64 µg/mL
OC(Cn1cncn1)(Cn1cncn1)c1ccc(F)cc1F [fluconazole] | – | – | – | – | – | – | MIC (C. dubliniensis; 48 h, read-out: FLU MIC): 0.12 µg/mL; frequency of resistant C. glabrata mutants (C. glabrata (ATCC 90030) [7]): 5×10^−6
CCC(C)n1ncn(-c2ccc(N3CCN(c4ccc(OCC5COC(Cn6cncn6)(c6ccc(Cl)cc6Cl)O5)cc4)CC3)cc2)c1=O (stereo not shown) [itraconazole, reference compound] | – | – | – | – | – | – | PAFE (C. glabrata): No PAFE; MIC80 ([8]; C. glabrata mutants resistant to that azole): > 64 µg/mL; MIC80 ([8]; C. glabrata parent strain): 1 µg/mL (≈ 1.42 µM); MIC80 itraconazole relative to wild type ([8]; fluconazole-resistant mutants (all)): 64 × wild type; itraconazole MIC80 in presence of Compound 4 ([8]; itraconazole-resistant mutants): ≤ 1 µg/mL; ITR MIC (A. flavus; A. flavus isolate 20351.092): 0.5 µg/mL; ITR MIC (A. flavus; A. flavus isolate 20414.083): 1.0 µg/mL; frequency of resistant C. glabrata mutants (C. glabrata (ATCC 90030) [7]): 3×10^−7
C[C@@H](c1ncncc1F)[C@](O)(Cn1cncn1)c1ccc(F)cc1F [voriconazole, reference compound] | – | – | – | – | – | – | MIC (C. dubliniensis; voriconazole alone, C. dubliniensis clinical isolates, CLSI M27-A2, 48 hour endpoint, read-out: VOR MIC): 0.007 µg/mL
Oxamflatin [reference compound] | ~7 | – | 5.0 | >20 | >128 | 2 | MIC80 (A. fumigatus ATCC 1022; compound alone, A. fumigatus ATCC 1022): >128 µg/mL; MIC80 (C. albicans (ATCC 90028)): >64 µg/mL; conc. for 4-fold synergy (C. albicans (ATCC 90028); with ketoconazole, 48 hours): 16 µg/mL; MIC80 (C. glabrata (ATCC 90030) [3]): >64 µg/mL; conc. for 4-fold synergy (C. glabrata (ATCC 90030) [3]; with ketoconazole, 48 hours): 128 µg/mL

Continued, in another order:

HDAC inhibition IC50 (HDAC [1]) [µg/mL] | MIC (C. albicans (ATCC 90028); [9]) [µg/mL] | HDAC inhibition IC50 (HDAC [6]) [µg/mL] | Molecule | HDAC inhibition IC50 (HDAC [2]) [µg/mL] | conc. for 4-fold synergy (A. fumigatus ATCC 1022; [10]) [µg/mL] | MTT HMEC (HMEC [4]) [µM] | also measured
> 20 | > 8 | – | O=C(Cc1ccc(CCCc2ccccc2)cc1)NO [Cpd 5] | > 20 | 4 | 47 | HDAC inhibition, per cent in parentheses beside IC50 >20 (HDAC [1]): 37%; HDAC inhibition, per cent in parentheses beside IC50 >20 (HDAC [2]): 42%; MIC (C. glabrata (ATCC 90030) [3]; [11]): > 50 µg/mL
> 20 | 25 | – | O=C(CCc1ccc(CCCc2ccccc2)cc1)NO [Cpd 6] | >20 | – | 40 | HDAC inhibition, per cent in parentheses beside IC50 >20 (HDAC [1]): 22%; ERG11 expression (ERG11 expression): decreases; MIC (C. glabrata (ATCC 90030) [3]; [11]): 25 µg/mL
> 20 | > 8 | – | O=C(CCc1ccc(CCc2ccccc2)cc1)NO [Cpd 7] | > 20 | – | 10 | HDAC inhibition, per cent in parentheses beside IC50 >20 (HDAC [1]): 27%; HDAC inhibition, per cent in parentheses beside IC50 >20 (HDAC [2]): 15%; MIC (C. glabrata (ATCC 90030) [3]; [11]): 16 µg/mL
50 | – | – | COc1ccc(C(OC)C(C)(C)CCCCC(=O)NO)cc1 (stereo not shown) [Cpd 11] | – | – | 50 | –
0.01 | > 128 | 0.01 | O=C(/C=C/c1ccc(CN(CCO)CCc2c[nH]c3ccccc23)cc1)NO [LAQ-824, reference compound] | 0.01 | >128 | – | MIC (A. fumigatus ATCC 1022; Aspergillus fumigatus, ATCC1022, 48 h, compound alone, A. fumigatus ATCC 1022, read-out: MIC80): > 128 µg/mL; MTT HMEC (HMEC [5]): 0.75 µM; MIC (C. glabrata (ATCC 90030) [3]; [11]): > 64 µg/mL
– | – | 2.0 | CC(/C=C/C(=O)NO)=C\C(C)Cc1ccc(N(C)C)cc1 (stereo not shown) [drawing 148] | – | – | 44 | conc. for 4-fold synergy (A. fumigatus ATCC 1022; with fluconazole, A. fumigatus ATCC 1022): 0.25 µg/mL
– | – | 2.0 | CC(/C=C/C(=O)NO)=C\C(C)Cc1ccc(N(C)C)cc1 (stereo not shown) [drawing 150] | – | – | 44 | conc. for 4-fold synergy (A. fumigatus ATCC 1022; with itraconazole, A. fumigatus ATCC 1022): 0.25 µg/mL
– | – | 2.0 | CC(/C=C/C(=O)NO)=C\C(C)Cc1ccc(N(C)C)cc1 (stereo not shown) [drawing 152] | – | – | 44 | conc. for 4-fold synergy (A. fumigatus ATCC 1022; with voriconazole, A. fumigatus (ATCC 1022)): 0.25 µg/mL
